In the supplement of paper PMC10307832:

Legend:
Assay in all cases: relative viability (nuclei count vs DMSO), 5 days (fraction); higher = more cells survive
[1] = compound: CO[C@@H]1[C@H](N(C)C(=O)c2ccccc2)C[C@H]2O[C@]1(C)n1c3ccccc3c3c4c(c5c6ccccc6n2c5c31)C(=O)NC4 [Midostaurin] + Cc1nc(NC(=O)N2CCC[C@H]2C(N)=O)sc1-c1ccnc(C(C)(C)C(F)(F)F)c1 [Alpelisib] (partner 2 µM)
Outline: (§1)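 One day after seeding in 1536-well plates, lung cancer cell lines were dosed by pin tool. Dosing was either single-drug or a fixed anchor-drug dose plus five library-drug doses (not always all listed) in √10 steps. After 5 days, nuclei were stained in one fix-and-stain step and counted on 4× images, and relative viability is the nuclei count of treated wells over that of vehicle wells, given as the median of duplicate plates.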

[2] = compound: COc1cc(-c2nn([C@H]3CC[C@H](N4CCN(C(C)=O)CC4)CC3)c3ncnc(N)c23)ccc1NC(=O)c1cc2ccccc2n1C + N=C(N)NC(=N)NCCc1ccccc1 [Phenformin] (partner 250 µM)
Outline: as §1

[3] = compound: CO[C@@H]1[C@H](N(C)C(=O)c2ccccc2)C[C@H]2O[C@]1(C)n1c3ccccc3c3c4c(c5c6ccccc6n2c5c31)C(=O)NC4 [Midostaurin] + CS(=O)(=O)CCNCc1ccc(-c2ccc3ncnc(Nc4ccc(OCc5cccc(F)c5)c(Cl)c4)c3c2)o1 [Lapatinib] (partner 2 µM)
Outline: as §1

[4] = compound: COc1cc(-c2nn([C@H]3CC[C@H](N4CCN(C(C)=O)CC4)CC3)c3ncnc(N)c23)ccc1NC(=O)c1cc2ccccc2n1C + COc1cc2c(Oc3ccc(NC(=O)C4(C(=O)Nc5ccc(F)cc5)CC4)cc3F)ccnc2cc1OCCCN1CCOCC1 [Foretinib] (partner 0.25 µM)
Outline: as §1

[5] = compound: CO[C@@H]1[C@H](N(C)C(=O)c2ccccc2)C[C@H]2O[C@]1(C)n1c3ccccc3c3c4c(c5c6ccccc6n2c5c31)C(=O)NC4 [Midostaurin] + Cc1nc(Nc2ncc(C(=O)Nc3c(C)cccc3Cl)s2)cc(N2CCN(CCO)CC2)n1 [Dasatinib] (partner 0.075 µM)
Outline: as §1

| Cell Line | relative viability ([1]; first compound 0.01 µM) | relative viability ([1]; first compound 0.03162 µM) | relative viability ([1]; first compound 0.1 µM) | relative viability ([1]; first compound 0.3162 µM) | relative viability ([2]; first compound 0.0128 µM) | relative viability ([2]; first compound 0.04048 µM) | relative viability ([2]; first compound 0.128 µM) | relative viability ([2]; first compound 1.28 µM) | relative viability ([3]; first compound 0.01 µM) | relative viability ([3]; first compound 0.03162 µM) | relative viability ([3]; first compound 0.1 µM) | relative viability ([3]; first compound 0.3162 µM) | relative viability ([4]; first compound 0.0128 µM) | relative viability ([4]; first compound 0.04048 µM) | relative viability ([4]; first compound 0.128 µM) | relative viability ([4]; first compound 1.28 µM) | relative viability ([5]; first compound 0.01 µM) | relative viability ([5]; first compound 0.03162 µM) | relative viability ([5]; first compound 0.1 µM) | relative viability ([5]; first compound 0.3162 µM) |
| --- | --- | --- | --- | --- | --- | --- | --- | --- | --- | --- | --- | --- | --- | --- | --- | --- | --- | --- | --- | --- |
| 201T | 1.04 | 1.01 | 1.02 | 1.08 | 0.448 | 0.446 | 0.401 | 0.353 | 1.06 | 0.982 | 1.07 | 1.08 | 1.06 | 1.19 | 0.859 | 0.594 | 0.557 | 0.533 | 0.562 | 0.558 |
| A549 | 0.742 | 0.705 | 0.679 | 0.265 | 0.178 | 0.203 | 0.151 | 0.185 | 0.954 | 0.854 | 1 | 0.212 | 0.927 | 0.991 | 0.969 | 0.935 | – | – | – | – |
| A-427 | 1.05 | 0.996 | 1.07 | 0.982 | 0.335 | – | 0.268 | 0.254 | 0.95 | 0.993 | 0.835 | 1.1 | 1.03 | – | 0.988 | 0.884 | 0.726 | 0.63 | 0.607 | 0.704 |
| ABC-1 | 1.05 | 0.879 | 0.816 | 0.897 | 0.231 | 0.245 | 0.225 | 0.243 | 1.05 | 1.29 | 1 | 1.17 | 0.967 | 0.953 | 1.05 | 0.881 | 0.512 | 0.668 | 0.451 | 0.504 |
| BEN | 1.03 | 1.02 | 0.968 | 1.06 | 0.235 | 0.272 | 0.276 | 0.218 | 0.718 | 0.719 | 0.777 | 0.815 | 0.502 | 0.642 | 0.602 | 0.45 | 0.371 | 0.32 | 0.405 | 0.379 |
| CAL-12T | 1.28 | 0.765 | 0.816 | 1.09 | 0.588 | 0.465 | 0.572 | 0.416 | 0.726 | 0.447 | 0.603 | 0.498 | 1.13 | 1.06 | 1.31 | 1.12 | 0.446 | 0.395 | 0.295 | 0.239 |
| COR-L23 | 0.737 | 0.659 | 0.818 | 0.497 | 0.424 | 0.559 | 0.413 | 0.434 | 0.922 | 1.1 | 0.835 | 0.855 | 1.08 | 1.14 | 0.894 | 0.981 | 0.436 | 0.455 | 0.368 | 0.27 |
| COR-L 105 | 1.08 | 0.823 | 0.778 | 1.05 | 0.474 | 0.58 | 0.4 | 0.232 | 0.364 | 0.395 | 0.357 | 0.344 | 1.04 | 1.34 | 0.994 | 0.598 | 0.351 | 0.396 | 0.385 | 0.285 |
| Calu-6 | 0.944 | 0.913 | 0.914 | 0.766 | – | – | – | – | 0.94 | 1.02 | 1.02 | 0.986 | 0.905 | 0.813 | 0.823 | 0.659 | – | – | – | – |
| ChaGo-K-1 | – | – | – | – | 0.472 | 0.491 | 0.417 | 0.431 | – | – | – | – | 0.994 | 0.897 | 0.892 | 0.742 | 0.509 | 0.584 | 0.541 | 0.689 |
| EBC-1 | 0.871 | 0.735 | 0.746 | 0.605 | – | – | – | – | 0.208 | 0.212 | 0.217 | 0.222 | 0.104 | 0.0846 | 0.126 | 0.112 | – | – | – | – |
| EKVX | 0.968 | 0.813 | 0.814 | 0.824 | 0.234 | 0.245 | 0.211 | 0.199 | 0.214 | 0.127 | 0.242 | 0.212 | 0.881 | 0.755 | 0.744 | 0.575 | 0.696 | 0.598 | 0.468 | 0.456 |
| EMC-BAC-2 | 0.765 | 0.717 | 0.586 | 0.61 | 0.563 | 0.633 | 0.499 | 0.422 | 0.869 | 0.828 | 0.872 | 0.885 | 1.06 | 1.05 | 0.968 | 0.617 | 0.358 | 0.372 | 0.273 | 0.248 |
| EPLC-272H | 0.74 | 0.909 | 1.05 | 1.05 | 0.46 | – | 0.27 | 0.282 | 0.918 | 0.867 | 0.75 | 0.855 | 0.78 | – | 0.705 | 0.37 | 0.381 | – | 0.422 | 0.351 |
| H3255 | 0.724 | 0.7 | 0.698 | 0.7 | 0.347 | 0.297 | 0.36 | 0.282 | 0.35 | 0.282 | 0.259 | 0.22 | 0.761 | 0.813 | 0.849 | 0.557 | 0.346 | 0.29 | 0.37 | 0.354 |
| HARA | 0.794 | 0.795 | 0.724 | 0.864 | 0.426 | 0.533 | 0.41 | 0.332 | 0.641 | 0.665 | 0.522 | 1.01 | 1.07 | 0.846 | 0.687 | 0.332 | 0.262 | 0.22 | 0.269 | 0.283 |
| HCC-15 | 0.944 | 0.838 | 0.954 | 0.925 | 0.525 | 0.447 | 0.476 | 0.42 | 0.85 | 0.776 | 0.692 | 0.921 | 1.13 | 1.09 | 0.94 | 0.877 | 0.735 | 0.655 | 0.657 | 0.635 |
